In patent US20250319206A1, “CRISPR/CAS GENE EDITING OF NEH4 AND/OR NEH5 DOMAINS IN NRF2” (Christina Care Gene Editing Institute, Inc., priority 2024, published 2025):

Tests used:
NRF2 = NRF2 protein analysis by western blot in FaDu cells; format: cell-based, Human; details: 72-hour timepoint, relative to GapDH, normalized to wild-type
Method: Total protein was isolated from cells in RIPA buffer (Pierce), incubated on ice for 30 minutes with vortexing every 10 minutes. Samples were centrifuged at 14,000×G at 4° C. for 15 minutes and the supernatant was saved. Protein extracts were quantified using a BCA assay (Pierce) and 20 μg of protein was loaded onto a Biorad 4-20% polyacrylamide pre-cast gel (Biorad). Protein was transferred onto a […] nitrocellulose blot using the Turboblot dry transfer system (Biorad). The membrane was blocked in 5% milk in TBS-T for 2 hours at room temperature and stained with anti-NRF2 1:1000 (Abcam, ab62352) and anti-GAPDH 1:5,000 (Cell Signaling Technology, 97166). Blots were washed 3× at room temperature in TBS-T and stained with secondary antibodies conjugated to HRP 1:10,000 (Abcam, ab205718 or Thermofisher, PI31430). Blots were imaged using the Pierce Femto western blotting substrate (Pierce). Bands were quantified using the FIJI gel analysis tool package.

NRF2 gene = assay: Exon skipping analysis of NRF2 cDNA in FaDu and KYSE-410 cells; format: cell-based, Human; details: 72 hours post-transfection, cDNA PCR 5′UTR to exon 5
Method: Total RNA was isolated from edited cells using TRIzol reagent and PureLink RNA Mini Kit (Thermo Fisher Scientific, Waltham, MA). Reverse transcription was conducted using the Applied Biosystems High-Capacity RNA-to-cDNA kit (Thermo Fisher Scientific, Waltham, MA). The cDNA was used as the template for PCR amplification with either Phusion Flash or Phusion High-Fidelity PCR master mix (Thermo Fisher Scientific, Waltham, MA) with primers spanning the 5′UTR region through Exon 5 (798 bp) of the NRF2 gene. PCR reactions were purified using Qiagen Qiaquick PCR cleanup columns (Quiagen, Hilden, Germany) according to manufacturer's protocol, measured on a Nanodrop and equally loaded on a 1% agarose gel.
The difference between targeting exon 2 and exon 4 was intriguing, so we wanted to see if a molecular rearrangement, exon skipping, which we had identified previously within the NRF2 gene was at least in part responsible for this difference^33. Since we know NRF2 exon 2 and exon 4 are disrupted by design, and intra-genic changes are the objective of the experiment, we asked if exon skipping could account for the differential response in targeting exon 2 versus exon 4. FIG. 14A represents the potential exon skipping outcomes. For both the FADU and the KYSE-410 cells, at 72 hours post-transfection RNA was converted to cDNA followed by PCR amplification of the NRF2 cDNA (798 bp) spanning the 5′UTR to exon 5. […] The 798 bp is the full transcript while the lower band for sg3 is 531 bp and sg76 is 606 bp, the expected sizes of the removal of exon 2 (267 bp) and exon 4 (192 bp).

KYSE-410 cells = assay: Chemosensitivity testing, CellTiter-Glo 2.0 cell viability, KYSE-410 cells; format: cell-based, Human; details: for chemosensitivity to Cisplatin restored: cisplatin 72 hr; for sensitivity to cisplatin: exon 4 targeting
Text: The data was plotted with the coefficient of variance.
To evaluate this approach for broad based applications, we executed the same protocol on KYSE-410 cells which originate from the poorly differentiated invasive esophageal squamous cell carcinoma resected from the cervical esophagus of a person prior to treatment^41. First, we confirmed that the DNA sequence of exon 2 and exon 4 was identical and amenable to targeting with CRISPRs sg3, sg76, or sg83 respectively (data not shown). While this may seem like a trivial matter, it is not, particularly with mutator phenotypes in transformed cells. Plated cells were allowed to recover for 24 hours prior to transfection with the same CRISPR complexes as described in FIG. 12. […] These overall levels are generally considered to be a complete genetic disruption of a mammalian gene. The percentage of frameshift mutations created by the action of these guide RNAs mimics those levels seen previously in FADU cells. […] The expression levels of NRF2, NQO1, HMOX1, and GCLC were also assessed, FIG. 13C. […] This analysis further supports that disruption of NRF2 in exon 4 has a higher impact on overcoming chemosensitivity by disrupting its function of activating downstream genes.

T98G cells = assay: Chemosensitivity testing, CellTiter-Glo 2.0, T98G cells; format: cell-based, human; details: increasing concentrations of temozolomide and doxorubicin, 72 hr
Text: FIG. 5A-D: Glioblastoma cells targeting exon 4 of NRF2 and assessment of chemotherapy response. T98G cells (FIG. 5A) and LN229 cells (FIG. 5B) were transfected with each respective gRNA. Genomic DNA from each cell population was isolated and amplified across exon 4 of the NRF2 gene. Amplicons were sanger sequenced and analyzed for indels at the CRISPR target site. Raw sequence files were aligned using the software program, DECODR, to display the indel pattern (listed as INDEL and frameshift %). (FIG. 5C-D) Chemosensitivity Testing in response to NRF2 targeting. Chemosensitivity was measured via CellTiter-Glo® 2.0 Assay. Untargeted and CRISPR targeted T98G cells were treated with increasing concentrations of (FIG. 5C) temozolomide or (FIG. 5D) doxorubicin for 72 hr. and then evaluated for cell viability. The average relative viability of cells normalized to the untreated Wt. was graphed. The error bars represent % CV.
Two human glioblastoma-derived cell lines were used to assess CRISPR activity and downstream effects of NRF2 knockout. FIG. 5 compares targeting exon 4 by two sgRNAs (sg76 (SEQ ID NO:16) and sg83 (SEQ ID NO:24)) and chemosensitivity assessment after targeting in both glioblastoma T98G and LN229 cell lines. Both cell lines were transfected using CRISPRmax lipofection with each respective gRNA and Cas9 mRNA. […]

FaDu cells = details: for viability after a single dose of Cisplatin: exon 4 edited, cisplatin 72 hours; for sensitivity to cisplatin: exon 4 targeting

sg3: gRNA targeting the DLG motif in exon 2 of NRF2; 5′-TATTTGACTTCAGTCAGCGA-3′ or TGGAGGCAAGATATAGATCT (further chemistry not given here) [reference compound]
NRF2 protein knock down (NRF2): 30% | exon skipping (NRF2 gene): second lower band indicative of an exon skipping event

sg76: gRNA targeting exon 4 of NRF2; TCACTTGTTCCTGATATTCC CGG (guide TCACTTGTTCCTGATATTCCCGG; listed as DNA, chemistry not given here)
chemosensitivity to Cisplatin restored (KYSE-410 cells): restored | sensitivity to cisplatin (KYSE-410 cells): enhanced sensitivity to cisplatin | NRF2 protein knock down (NRF2): 90% | exon skipping (NRF2 gene): second lower band indicative of an exon skipping event | sensitivity to treatment (T98G cells): increased sensitivity to treatment | viability after a single dose of Cisplatin (FaDu cells): significant reduction in viability | sensitivity to cisplatin (FaDu cells): enhanced sensitivity to cisplatin

sg83: gRNA targeting exon 4 of NRF2; GTAGCCCCTGTTGATTTAGA CGG (guide GTAGCCCCTGTTGATTTAGACGG; listed as DNA, chemistry not given here)
chemosensitivity to Cisplatin restored (KYSE-410 cells): restored | sensitivity to cisplatin (KYSE-410 cells): enhanced sensitivity to cisplatin | NRF2 protein knock down (NRF2): 90% | exon skipping (NRF2 gene): some level of exon skipping activity is detected but at much lower rate | sensitivity to treatment (T98G cells): increased sensitivity to treatment | viability after a single dose of Cisplatin (FaDu cells): significant reduction in viability | sensitivity to cisplatin (FaDu cells): enhanced sensitivity to cisplatin
